Patent publication EP4722207A1, “OXOISOINDOLINYL-SUBSTITUTED TETRAHYDROPYRIMIDINEDIONE DERIVATIVE AND USE THEREOF” (Gluetacs Therapeutics (Shanghai) Co., Ltd., priority 2023, dated 2024)

Assays:
Type in all cases: cell-based
Settings in all cases: compounds at 50 nM and 500 nM, 24 hours
[1] = molecular target: T1, GSPT1 (Homo sapiens, UniProt P15170+Q96SW2); assay: Western-blot assay, substrate protein degradation in hPBMCs: GSPT1
T1 construct: effects of the compounds of the present disclosure on the expression of target proteins in cells; endogenous in cells; host or cells: human PBMCs (hPBMCs)
T1 sequence (P15170 whole entry): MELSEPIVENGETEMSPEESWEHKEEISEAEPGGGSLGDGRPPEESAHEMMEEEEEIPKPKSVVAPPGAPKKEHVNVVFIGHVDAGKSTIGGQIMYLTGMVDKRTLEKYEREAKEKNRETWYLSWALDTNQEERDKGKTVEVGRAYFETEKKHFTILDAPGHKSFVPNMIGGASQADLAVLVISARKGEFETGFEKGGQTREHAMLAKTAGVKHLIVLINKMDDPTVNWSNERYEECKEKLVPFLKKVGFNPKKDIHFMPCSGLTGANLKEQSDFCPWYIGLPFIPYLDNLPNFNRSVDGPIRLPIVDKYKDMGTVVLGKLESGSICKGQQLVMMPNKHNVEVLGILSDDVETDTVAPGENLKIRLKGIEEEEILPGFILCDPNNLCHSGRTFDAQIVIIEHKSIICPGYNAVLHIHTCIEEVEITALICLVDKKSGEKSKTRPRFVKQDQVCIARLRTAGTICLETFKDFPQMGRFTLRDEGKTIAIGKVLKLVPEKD
T1 sequence (Q96SW2 whole entry): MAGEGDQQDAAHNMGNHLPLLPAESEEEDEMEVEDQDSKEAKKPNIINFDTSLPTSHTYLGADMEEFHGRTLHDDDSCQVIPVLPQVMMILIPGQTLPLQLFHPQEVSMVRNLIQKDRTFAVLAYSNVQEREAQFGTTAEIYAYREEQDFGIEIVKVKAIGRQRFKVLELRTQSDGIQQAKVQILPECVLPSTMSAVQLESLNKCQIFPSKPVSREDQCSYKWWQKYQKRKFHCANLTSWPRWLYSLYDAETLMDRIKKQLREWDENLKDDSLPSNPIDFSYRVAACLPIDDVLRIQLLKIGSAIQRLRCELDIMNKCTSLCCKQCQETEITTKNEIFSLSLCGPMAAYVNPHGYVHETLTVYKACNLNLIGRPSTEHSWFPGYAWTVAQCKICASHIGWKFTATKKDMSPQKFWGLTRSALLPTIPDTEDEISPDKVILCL
T1 sequence (Q16531 whole entry partner): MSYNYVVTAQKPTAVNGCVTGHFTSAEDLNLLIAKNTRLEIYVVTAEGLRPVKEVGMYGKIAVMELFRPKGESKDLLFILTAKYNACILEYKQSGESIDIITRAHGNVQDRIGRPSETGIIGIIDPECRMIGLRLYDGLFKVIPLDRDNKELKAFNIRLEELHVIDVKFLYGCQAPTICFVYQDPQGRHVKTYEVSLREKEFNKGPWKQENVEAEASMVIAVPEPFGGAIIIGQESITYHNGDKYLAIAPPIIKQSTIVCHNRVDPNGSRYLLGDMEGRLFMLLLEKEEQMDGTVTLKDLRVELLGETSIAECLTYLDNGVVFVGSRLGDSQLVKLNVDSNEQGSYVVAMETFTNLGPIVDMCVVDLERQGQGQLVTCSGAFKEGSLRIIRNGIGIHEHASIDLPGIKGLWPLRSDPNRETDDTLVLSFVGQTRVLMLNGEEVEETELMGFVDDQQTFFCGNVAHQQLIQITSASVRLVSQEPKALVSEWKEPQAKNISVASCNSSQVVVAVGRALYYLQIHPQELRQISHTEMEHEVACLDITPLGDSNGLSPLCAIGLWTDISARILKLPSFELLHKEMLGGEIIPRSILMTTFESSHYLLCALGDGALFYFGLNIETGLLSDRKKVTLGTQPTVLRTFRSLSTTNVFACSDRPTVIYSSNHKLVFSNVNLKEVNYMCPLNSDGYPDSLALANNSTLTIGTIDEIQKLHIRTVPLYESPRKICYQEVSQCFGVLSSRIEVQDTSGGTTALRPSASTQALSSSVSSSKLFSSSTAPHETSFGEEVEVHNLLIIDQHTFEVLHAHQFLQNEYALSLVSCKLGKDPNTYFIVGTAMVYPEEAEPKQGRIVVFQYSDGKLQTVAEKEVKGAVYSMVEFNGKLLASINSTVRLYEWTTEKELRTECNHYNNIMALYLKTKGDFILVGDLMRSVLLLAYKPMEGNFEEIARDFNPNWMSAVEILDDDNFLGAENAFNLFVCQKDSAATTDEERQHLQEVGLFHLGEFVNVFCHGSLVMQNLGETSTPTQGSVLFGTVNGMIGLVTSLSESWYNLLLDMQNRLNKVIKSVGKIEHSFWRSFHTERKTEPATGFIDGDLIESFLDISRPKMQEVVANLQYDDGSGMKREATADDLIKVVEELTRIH

[2] = molecular target: T2, IKZF3 (Homo sapiens, UniProt Q96SW2+Q9UKT9); assay: Western-blot assay, substrate protein degradation in hPBMCs: IKZF3
T2 construct: effects of the compounds of the present disclosure on the expression of target proteins in cells; endogenous in cells; host or cells: human PBMCs (hPBMCs)

[3] = molecular target: T3, IKZF1 (Homo sapiens, UniProt Q13422+Q96SW2); assay: Western-blot assay, substrate protein degradation in hPBMCs: IKZF1
T3 construct: effects of the compounds of the present disclosure on the expression of target proteins in cells; endogenous in cells; host or cells: human PBMCs (hPBMCs)
T3 sequence (Q13422 whole entry): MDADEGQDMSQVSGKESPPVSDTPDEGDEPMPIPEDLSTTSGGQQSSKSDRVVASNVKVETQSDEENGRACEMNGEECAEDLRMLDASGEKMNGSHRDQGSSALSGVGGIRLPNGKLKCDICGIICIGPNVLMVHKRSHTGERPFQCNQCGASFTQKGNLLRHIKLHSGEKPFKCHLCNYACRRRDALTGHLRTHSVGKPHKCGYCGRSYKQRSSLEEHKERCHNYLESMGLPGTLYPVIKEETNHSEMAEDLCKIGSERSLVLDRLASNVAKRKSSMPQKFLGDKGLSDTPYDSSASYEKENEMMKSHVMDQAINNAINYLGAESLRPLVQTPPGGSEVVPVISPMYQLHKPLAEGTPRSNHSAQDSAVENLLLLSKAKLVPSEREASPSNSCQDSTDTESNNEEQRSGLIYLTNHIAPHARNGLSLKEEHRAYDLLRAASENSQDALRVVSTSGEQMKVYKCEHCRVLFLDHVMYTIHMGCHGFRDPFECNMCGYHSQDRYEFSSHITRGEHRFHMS
T3 sequence (Q96SW2 whole entry): as the sequence (Q96SW2 whole entry) above
T3 sequence (Q16531 whole entry partner): as the sequence (Q16531 whole entry partner) above

[4] = molecular target: T4, IKZF2 (Homo sapiens, UniProt Q96SW2+Q9UKS7); assay: Western-blot assay, substrate protein degradation in hPBMCs: IKZF2
T4 construct: effects of the compounds of the present disclosure on the expression of target proteins in cells; endogenous in cells; host or cells: human PBMCs (hPBMCs)
T4 sequence (Q9UKS7 whole entry): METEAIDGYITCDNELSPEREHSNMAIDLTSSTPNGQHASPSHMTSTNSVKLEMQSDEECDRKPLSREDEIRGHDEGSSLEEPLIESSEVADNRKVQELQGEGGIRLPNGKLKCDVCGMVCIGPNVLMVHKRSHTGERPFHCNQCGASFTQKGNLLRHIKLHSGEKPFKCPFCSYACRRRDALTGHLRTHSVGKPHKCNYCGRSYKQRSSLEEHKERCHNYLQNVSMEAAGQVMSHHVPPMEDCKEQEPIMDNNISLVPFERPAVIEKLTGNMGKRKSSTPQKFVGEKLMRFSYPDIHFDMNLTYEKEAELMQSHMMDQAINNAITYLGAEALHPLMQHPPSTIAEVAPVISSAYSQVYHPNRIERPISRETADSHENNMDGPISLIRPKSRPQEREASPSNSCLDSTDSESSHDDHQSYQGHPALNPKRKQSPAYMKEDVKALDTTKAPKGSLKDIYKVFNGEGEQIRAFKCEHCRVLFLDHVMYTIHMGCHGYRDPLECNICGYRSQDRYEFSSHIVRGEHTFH
T4 sequence (Q96SW2 whole entry): as the sequence (Q96SW2 whole entry) above
T4 sequence (Q16531 whole entry partner): as the sequence (Q16531 whole entry partner) above

[5] = molecular target: T5, WEE1 (Homo sapiens, UniProt P30291+Q96SW2); assay: Western-blot assay, substrate protein degradation in hPBMCs: WEE1
T5 construct: effects of the compounds of the present disclosure on the expression of target proteins in cells; endogenous in cells; host or cells: human PBMCs (hPBMCs)
T5 sequence (P30291 whole entry): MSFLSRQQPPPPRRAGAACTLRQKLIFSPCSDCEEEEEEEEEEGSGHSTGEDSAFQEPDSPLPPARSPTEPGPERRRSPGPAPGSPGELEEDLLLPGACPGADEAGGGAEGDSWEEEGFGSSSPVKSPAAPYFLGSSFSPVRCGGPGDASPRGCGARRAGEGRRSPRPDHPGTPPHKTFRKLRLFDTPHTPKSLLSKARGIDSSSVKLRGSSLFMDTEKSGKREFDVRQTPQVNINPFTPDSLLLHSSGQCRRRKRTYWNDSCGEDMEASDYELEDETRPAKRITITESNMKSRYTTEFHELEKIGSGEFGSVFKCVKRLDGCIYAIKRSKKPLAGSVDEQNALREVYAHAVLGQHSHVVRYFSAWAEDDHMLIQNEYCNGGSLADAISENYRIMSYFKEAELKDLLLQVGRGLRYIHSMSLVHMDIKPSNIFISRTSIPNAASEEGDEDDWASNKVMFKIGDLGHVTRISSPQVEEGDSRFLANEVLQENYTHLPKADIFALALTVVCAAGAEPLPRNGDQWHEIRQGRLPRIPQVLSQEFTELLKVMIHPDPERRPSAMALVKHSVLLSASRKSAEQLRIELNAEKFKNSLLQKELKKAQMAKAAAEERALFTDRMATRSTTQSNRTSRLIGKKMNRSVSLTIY
T5 sequence (Q96SW2 whole entry): as the sequence (Q96SW2 whole entry) above
T5 sequence (Q16531 whole entry partner): as the sequence (Q16531 whole entry partner) above

[6] = molecular target: T6, CK1α (Homo sapiens, UniProt P48729+Q96SW2); assay: Western-blot assay, substrate protein degradation in hPBMCs: CK1α
T6 construct: effects of the compounds of the present disclosure on the expression of target proteins in cells; endogenous in cells; host or cells: human PBMCs (hPBMCs)
T6 sequence (P48729 whole entry): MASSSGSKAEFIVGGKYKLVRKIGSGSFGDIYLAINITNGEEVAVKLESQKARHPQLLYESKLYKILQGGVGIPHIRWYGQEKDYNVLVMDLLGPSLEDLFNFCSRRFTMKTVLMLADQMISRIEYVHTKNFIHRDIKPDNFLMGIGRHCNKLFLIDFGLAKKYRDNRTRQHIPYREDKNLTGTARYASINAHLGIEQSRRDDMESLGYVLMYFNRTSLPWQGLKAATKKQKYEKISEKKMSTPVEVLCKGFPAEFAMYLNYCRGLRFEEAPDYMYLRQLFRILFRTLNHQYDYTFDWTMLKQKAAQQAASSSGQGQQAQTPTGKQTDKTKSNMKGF
T6 sequence (Q96SW2 whole entry): as the sequence (Q96SW2 whole entry) above
T6 sequence (Q16531 whole entry partner): as the sequence (Q16531 whole entry partner) above

SMILES: O=C1CCN(N2Cc3cc(CN4C5CCC4CN(C(c4ccccc4)c4ccccc4)C5)ccc3C2=O)C(=O)N1 [GT-06454, 1-(5-((3-benzhydryl-3,8-diazabicyclo[3.2.1]octan-8-yl)methyl)-1-oxoisoindolin-2-yl)dihydropyrimidine-2,4(1H,3H)-dione]
- GSPT1 substrate protein remaining % [1]: B ("B" is defined as 80%< substrate protein remaining %≤ 100%)
- IKZF3 substrate protein remaining % [2]: B ("B" is defined as 80%< substrate protein remaining %≤ 100%)
- IKZF1 substrate protein remaining % [3]: B ("B" is defined as 80%< substrate protein remaining %≤ 100%)
- IKZF2 substrate protein remaining % [4]: B ("B" is defined as 80%< substrate protein remaining %≤ 100%)
- WEE1 substrate protein remaining % [5]: A ("A" is defined as 0% ≤ substrate protein remaining % ≤ 80%)
- CK1α substrate protein remaining % [6]: B ("B" is defined as 80%< substrate protein remaining %≤ 100%)

SMILES: O=C1CCN(N2C(=O)c3ccc(CN4C5CCC4CN(C(c4ccccc4)c4ccccc4)C5)cc3C2=O)C(=O)N1 [GT-06455, 5-((3-benzhydryl-3,8-diazabicyclo[3.2.1]octan-8-yl)methyl)-2-(2,4-dioxotetrahydropyrimidin-1(2H)-yl)isoindoline-1,3-dione]
- GSPT1 substrate protein remaining % [1]: B ("B" is defined as 80%< substrate protein remaining %≤ 100%)
- IKZF3 substrate protein remaining % [2]: B ("B" is defined as 80%< substrate protein remaining %≤ 100%)
- IKZF1 substrate protein remaining % [3]: B ("B" is defined as 80%< substrate protein remaining %≤ 100%)
- IKZF2 substrate protein remaining % [4]: B ("B" is defined as 80%< substrate protein remaining %≤ 100%)
- WEE1 substrate protein remaining % [5]: A ("A" is defined as 0% ≤ substrate protein remaining % ≤ 80%)
- CK1α substrate protein remaining % [6]: B ("B" is defined as 80%< substrate protein remaining %≤ 100%)

SMILES: CC1(C)CCC(CN2CC3CC(C2)N3Cc2ccc3c(c2)C(=O)N(N2CCC(=O)NC2=O)C3=O)=C(c2ccc(Cl)cc2)C1 [GT-06457, 5-((3-((4'-chloro-5,5-dimethyl-3,4,5,6-tetrahydro-[1,1'-biphenyl]-2-yl)methyl)-3,6-diazabicyclo[3.1.1]heptan-6-yl)methyl)-2-(2,4-dioxotetrahydropyrimidin-1(2H)-yl)isoindoline-1,3-dione]
- GSPT1 substrate protein remaining % [1]: A ("A" is defined as 0% ≤ substrate protein remaining % ≤ 80%)
- IKZF3 substrate protein remaining % [2]: A ("A" is defined as 0% ≤ substrate protein remaining % ≤ 80%)
- IKZF1 substrate protein remaining % [3]: A ("A" is defined as 0% ≤ substrate protein remaining % ≤ 80%)
- IKZF2 substrate protein remaining % [4]: A ("A" is defined as 0% ≤ substrate protein remaining % ≤ 80%)
- WEE1 substrate protein remaining % [5]: A ("A" is defined as 0% ≤ substrate protein remaining % ≤ 80%)
- CK1α substrate protein remaining % [6]: A ("A" is defined as 0% ≤ substrate protein remaining % ≤ 80%)

SMILES: CC1(C)CCC(CN2C3CC2CN(Cc2ccc4c(c2)CN(N2CCC(=O)NC2=O)C4=O)C3)=C(c2ccc(Cl)cc2)C1 [GT-06458, 1-(5-((6-((4'-chloro-5,5-dimethyl-3,4,5,6-tetrahydro-[1,1'-biphenyl]-2-yl)methyl)-3,6-diazabicyclo[3.1.1]heptan-3-yl)methyl)-1-oxoisoindolin-2-yl)dihydropyrimidine-2,4(1H,3H)-dione]
- GSPT1 substrate protein remaining % [1]: A ("A" is defined as 0% ≤ substrate protein remaining % ≤ 80%)
- IKZF3 substrate protein remaining % [2]: A ("A" is defined as 0% ≤ substrate protein remaining % ≤ 80%)
- IKZF1 substrate protein remaining % [3]: A ("A" is defined as 0% ≤ substrate protein remaining % ≤ 80%)
- IKZF2 substrate protein remaining % [4]: A ("A" is defined as 0% ≤ substrate protein remaining % ≤ 80%)
- WEE1 substrate protein remaining % [5]: A ("A" is defined as 0% ≤ substrate protein remaining % ≤ 80%)
- CK1α substrate protein remaining % [6]: A ("A" is defined as 0% ≤ substrate protein remaining % ≤ 80%)

SMILES: CC1(C)CCC(CN2C3CC2CN(Cc2ccc4c(c2)C(=O)N(N2CCC(=O)NC2=O)C4=O)C3)=C(c2ccc(Cl)cc2)C1 [GT-06459, 5-((6-((4'-chloro-5,5-dimethyl-3,4,5,6-tetrahydro-[1,1'-biphenyl]-2-yl)methyl)-3,6-diazabicyclo[3.1.1]heptan-3-yl)methyl)-2-(2,4-dioxotetrahydropyrimidin-1(2H)-yl)isoindoline-1,3-dione]
- GSPT1 substrate protein remaining % [1]: A ("A" is defined as 0% ≤ substrate protein remaining % ≤ 80%)
- IKZF3 substrate protein remaining % [2]: A ("A" is defined as 0% ≤ substrate protein remaining % ≤ 80%)
- IKZF1 substrate protein remaining % [3]: A ("A" is defined as 0% ≤ substrate protein remaining % ≤ 80%)
- IKZF2 substrate protein remaining % [4]: A ("A" is defined as 0% ≤ substrate protein remaining % ≤ 80%)
- WEE1 substrate protein remaining % [5]: A ("A" is defined as 0% ≤ substrate protein remaining % ≤ 80%)
- CK1α substrate protein remaining % [6]: A ("A" is defined as 0% ≤ substrate protein remaining % ≤ 80%)

SMILES: O=C1CCN(N2Cc3cc(CN4CCN(c5cccc(F)c5)CC4)ccc3C2=O)C(=O)N1 [GT-06701, 1-(5-((4-(3-fluorophenyl)piperazin-1-yl)methyl)-1-oxoisoindolin-2-yl)dihydropyrimidine-2,4(1H,3H)-dione]
- GSPT1 substrate protein remaining % [1]: A ("A" is defined as 0% ≤ substrate protein remaining % ≤ 80%)
- IKZF3 substrate protein remaining % [2]: B ("B" is defined as 80%< substrate protein remaining %≤ 100%)
- IKZF1 substrate protein remaining % [3]: B ("B" is defined as 80%< substrate protein remaining %≤ 100%)
- IKZF2 substrate protein remaining % [4]: B ("B" is defined as 80%< substrate protein remaining %≤ 100%)
- WEE1 substrate protein remaining % [5]: B ("B" is defined as 80%< substrate protein remaining %≤ 100%)
- CK1α substrate protein remaining % [6]: A ("A" is defined as 0% ≤ substrate protein remaining % ≤ 80%)

SMILES: O=C1CCN(N2C(=O)c3ccc(CN4CCN(c5ccccc5)CC4)cc3C2=O)C(=O)N1 [GT-06719, 2-(2,4-dioxotetrahydropyrimidin-1(2H)-yl)-5-((4-phenylpiperazin-1-yl)methyl)isoindoline-1,3-dione]
- GSPT1 substrate protein remaining % [1]: B ("B" is defined as 80%< substrate protein remaining %≤ 100%)
- IKZF3 substrate protein remaining % [2]: A ("A" is defined as 0% ≤ substrate protein remaining % ≤ 80%)
- IKZF1 substrate protein remaining % [3]: B ("B" is defined as 80%< substrate protein remaining %≤ 100%)
- IKZF2 substrate protein remaining % [4]: B ("B" is defined as 80%< substrate protein remaining %≤ 100%)
- WEE1 substrate protein remaining % [5]: B ("B" is defined as 80%< substrate protein remaining %≤ 100%)
- CK1α substrate protein remaining % [6]: B ("B" is defined as 80%< substrate protein remaining %≤ 100%)

SMILES: COc1ccccc1N1CCN(Cc2ccc3c(c2)C(=O)N(N2CCC(=O)NC2=O)C3=O)CC1 [GT-06720, 2-(2,4-dioxotetrahydropyrimidin-1(2H)-yl)-5-((4-(2-methoxyphenyl)piperazin-1-yl)methyl)isoindoline-1,3-dione]
- GSPT1 substrate protein remaining % [1]: B ("B" is defined as 80%< substrate protein remaining %≤ 100%)
- IKZF3 substrate protein remaining % [2]: A ("A" is defined as 0% ≤ substrate protein remaining % ≤ 80%)
- IKZF1 substrate protein remaining % [3]: B ("B" is defined as 80%< substrate protein remaining %≤ 100%)
- IKZF2 substrate protein remaining % [4]: B ("B" is defined as 80%< substrate protein remaining %≤ 100%)
- WEE1 substrate protein remaining % [5]: B ("B" is defined as 80%< substrate protein remaining %≤ 100%)
- CK1α substrate protein remaining % [6]: B ("B" is defined as 80%< substrate protein remaining %≤ 100%)

SMILES: COc1cccc(N2CCN(Cc3ccc4c(c3)C(=O)N(N3CCC(=O)NC3=O)C4=O)CC2)c1 [GT-06721, 2-(2,4-dioxotetrahydropyrimidin-1(2H)-yl)-5-((4-(3-methoxyphenyl)piperazin-1-yl)methyl)isoindoline-1,3-dione]
- GSPT1 substrate protein remaining % [1]: B ("B" is defined as 80%< substrate protein remaining %≤ 100%)
- IKZF3 substrate protein remaining % [2]: A ("A" is defined as 0% ≤ substrate protein remaining % ≤ 80%)
- IKZF1 substrate protein remaining % [3]: A ("A" is defined as 0% ≤ substrate protein remaining % ≤ 80%)
- IKZF2 substrate protein remaining % [4]: A ("A" is defined as 0% ≤ substrate protein remaining % ≤ 80%)
- WEE1 substrate protein remaining % [5]: B ("B" is defined as 80%< substrate protein remaining %≤ 100%)
- CK1α substrate protein remaining % [6]: B ("B" is defined as 80%< substrate protein remaining %≤ 100%)

SMILES: O=C1CCN(N2C(=O)c3ccc(CN4CCN(c5cccc(Br)c5)CC4)cc3C2=O)C(=O)N1 [GT-06722, 5-((4-(3-bromophenyl)piperazin-1-yl)methyl)-2-(2,4-dioxotetrahydropyrimidin-1(2H)-yl)isoindoline-1,3-dione]
- GSPT1 substrate protein remaining % [1]: B ("B" is defined as 80%< substrate protein remaining %≤ 100%)
- IKZF3 substrate protein remaining % [2]: A ("A" is defined as 0% ≤ substrate protein remaining % ≤ 80%)
- IKZF1 substrate protein remaining % [3]: A ("A" is defined as 0% ≤ substrate protein remaining % ≤ 80%)
- IKZF2 substrate protein remaining % [4]: B ("B" is defined as 80%< substrate protein remaining %≤ 100%)
- WEE1 substrate protein remaining % [5]: A ("A" is defined as 0% ≤ substrate protein remaining % ≤ 80%)
- CK1α substrate protein remaining % [6]: A ("A" is defined as 0% ≤ substrate protein remaining % ≤ 80%)
